Assay results from US10961309B2, “Reducing systemic regulatory T cell levels or activity for treatment of disease and injury of the CNS” (Yeda Research and Development Co. Ltd, priority 2014, dated 2021).
“Also recorded” adds a separate entry of the source.

Columns and labels:
Assay type in all cases: in vivo, mouse
[1] = system: splenocytes (CD4+Foxp3+ Tregs, CD4+ IFN-γ+ T cells); experiment: Flow cytometry of splenocytes
Method: (§1) Mice were transcardially perfused with PBS, and tissues were treated as previously described (Baruch et al, 2013). Brains were dissected and the different brain regions were removed under a dissecting microscope (Stemi DV4; Zeiss) in PBS, and tissues were dissociated using the gentleMACS™ dissociator (Miltenyi Biotec). Choroid plexus tissues were isolated from the lateral, third and fourth ventricles of the brain, incubated at 37° C. for 45 min in PBS (with Ca^2+/Mg^2+) containing 400 U/ml collagenase type IV (Worthington Biochemical Corporation), and then manually homogenized by pipetting. Spleens were mashed with the plunger of a syringe and treated with ACK (ammonium chloride potassium) lysing buffer to remove erythrocytes. In all cases, samples were stained according to the manufacturers' protocols. All samples were filtered through a 70 μm nylon mesh, and blocked with anti-Fc CD16/32 (1:100; BD Biosciences). For intracellular staining of IFN-γ, the cells were incubated with […] (10 ng/ml; Sigma-Aldrich) and ionomycin (250 ng/ml; Sigma-Aldrich) for 6 h, and Brefeldin-A (10 μg/ml; Sigma-Aldrich) was added for the last 4 h. Intracellular labeling of cytokines was done with BD Cytofix/Cytoperm™ Plus fixation/permeabilization kit (cat. no. 555028). For Treg staining, an eBioscience FoxP3 staining buffer set (cat. no. 00-5523-00) was used. The following fluorochrome-labeled monoclonal antibodies were purchased from BD Pharmingen, BioLegend, R&D Systems, or eBiosciences, and used according to the manufacturers' protocols: PE or Alexa Fluor 450-conjugated anti-CD4; PE-conjugated anti-CD25; PerCP-Cy5.5-conjugated anti-CD45; FITC-conjugated anti-TCRβ; APC-conjugated anti-IFN-γ; APC-conjugated anti-FoxP3; Brilliant-violet-conjugated anti-CD45. Cells were analyzed on an LSRII cytometer (BD Biosciences) using FlowJo software. In each experiment, relevant negative control groups, positive controls, and single stained samples for each tissue were used to identify the populations of interest and to exclude other populations.

[2] = system: Foxp3+ Tregs; experiment: Conditional ablation of Treg by DTx, confirmed by flow cytometry
Method: as §1, with “For Treg staining, an eBioscience FoxP3 staining buffer set (cat. no. 00-5523-00) was used. The following fluorochrome-labeled monoclonal antibodies were purchased from BD Pharmingen, BioLegend, R&D Systems, or eBiosciences, and used according to the manufacturers' protocols: PE or Alexa Fluor 450-conjugated anti-CD4; PE-conjugated anti-CD25; PerCP-Cy5.5-conjugated anti-CD45; FITC-conjugated anti-TCRβ; APC-conjugated anti-IFN-γ; APC-conjugated anti-FoxP3; Brilliant-violet-conjugated anti-CD45.” left out, “In each experiment, relevant negative control groups, positive controls, and single stained samples for each tissue were used to identify the populations of interest and to exclude other populations.” left out

[3] = system: CD11bhigh/CD45high mo-MΦ, CD4+ T cells, Foxp3+ Tregs in the brain; experiment: Flow cytometry of brain parenchyma / hippocampus
Method: as §1

[4] = AD-Tg/DTR+ mice, 3 weeks after last DTx injection

## CC1=C(/C=C/C(C)=C/C=C/C(C)=C/C(=O)O)C(C)(C)CCC1 [ATRA, All-trans retinoic acid]
[1]; ATRA 8 mg/kg/d i.p. every other day 1 week vs vehicle (DMSO), 5-month 5XFAD AD-Tg mice
  splenocyte frequencies of Foxp3+CD25+ Tregs: significantly higher; also recorded: elevation

## Diphtheria toxin [DTx]
[2]; blood and spleen, Foxp3.LuciDTR mice, DTx 8 ng/g i.p. daily 4 consecutive days
  depletion of the GFP-expressing FoxP3+ CD4+ Treg cells: > 99%
[2]; splenocytes from AD-Tg/Foxp3-DTR+/− mice, 1 day after last injection, DTx i.p. 4 days
  depletion of Foxp3+ cells: ~99%
[3]; [4]
  Foxp3+ Tregs among CD4+ T cells in the brain: marked enrichment
  numbers of CD45high/CD11bhigh mo-MΦ and CD4+ T cells in brain parenchyma: increased numbers; also recorded: elevated numbers

## Glatiramer acetate [GA]
[1]; weekly-GA, 5XFAD AD-Tg mice, end of 1st week of regimen
  splenocyte Foxp3+ Treg levels: reduced
[3]; weekly-GA, AD-Tg non-chimeric mice, 2nd week of regimen
  numbers of CD11bhighCD45high-expressing cells in the hippocampus: increased numbers
